Values joined by “and” are separate entries in the source; they are usually repeats but may differ in a detail not shown here. Equal values may be shown once.
What was measured:
Format in all cases: in vivo
[1] = tested on: spontaneous type II diabetic db/db mice; test: Prevention and treatment of retinopathy: pathological staining of eyeball, grading of retinal ganglion cell layer degeneration; set-up: key to Left eye / Right eye / Retinal degeneration, ganglion cell layer (right eye) / Retinal degeneration, ganglion cell layer (left eye): “N” means normal tissue morphology and structure; “E” means changed tissue morphology and structure; “—” means no such pathological change; settings: 12 weeks
Protocol: (§1) Design of test groups: db/m group, db/db mice are divided into the following six groups: blank control group (no glucose), negative control group (model group), positive control group (350 mg/kg metformin), H2 low dose group (40 mg/kg), H2 medium dose group (80 mg/kg), H2 high dose group (160 mg/kg); • Number of animals: 12 mice for each group; • Sex: male;
(§2) Administration frequency: once a day, for 12 weeks; db/m group, blank control group and negative control group: receiving distilled water; positive control group: positive drug metformin; other administration groups: receiving different dose of test drug H2, respectively; the day of administration was defined as the first day of the test.
During the test period, compared with the animals in normal control group, the retinal ganglion cell layer of animals in each group had different degrees of degeneration except for the test drug H2 high-dose group. According to the severity of the degeneration of the retinal ganglion cell layers, there were 0-4 grades according to the pathological grading principle in the literature
(Fermented Milk has Anti-diabetic Effects: Anti-diabetic Effect of Fermented Milk Containing Conjugated Linoleic Acid on Type II Diabetes Mellitus, Korean J. Food Sci. An., Vol. 36, No. 2 (2016)). The larger the value, the more severe the disease.

[2] = tested on: spontaneous type II diabetic db/db mice; test: Kidney histopathology grading after treatment; set-up: key to kidney / Basophilic changes in renal tubules / Monocyte infiltration / Hypertrophy of renal tubular epithelial cells / Dilation of the renal pelvis / Protein casts / Glomerular dilation / Glomerulosclerosis: “N” means normal tissue morphology and structure; “E” means changed tissue morphology and structure; “—” means no such pathological change; settings: 12 weeks
Protocol: as §1, §2
After completion of the test, the kidney was dissected and collected. The histopathological results of the kidney indicated the grades by referring to the principles and standards in literature
(Fermented Milk has Anti-diabetic Effects: Anti-diabetic Effect of Fermented Milk Containing Conjugated Linoleic Acid on Type II Diabetes Mellitus, Korean J. Food Sci. An., Vol. 36, No. 2 (2016)).

[3] = tested on: spontaneous type II diabetic db/db mice; test: Kidney function: blood urea nitrogen (UREA), blood creatinine (CREA) and renal index before and after administration; settings: MEAN ± SEM
Protocol: as §1, §2
(1) Changes of blood urea nitrogen (UREA) and blood creatinine (CREA) as well as renal index before and after administration

[4] = tested on: spontaneous type II diabetic db/db mice; test: Hypoglycemic effect test: tail vein blood glucose during 12 weeks of dosing
Protocol: as §1, §2
Sampling frequency: blood glucose was detected once every 2 weeks after grouping, and then after glucose was administrated, the blood glucose was further measured. Sampling site: tail vein; sampling volume: about 1 drop; blood glucose detection: real-time detection by blood glucose meter.

[5] = metformin 350 mg/kg oral gavage once a day, individual animals
[6] = metformin 350 mg/kg oral gavage once a day, individual animals, grades 0-4, larger = more severe
[7] = metformin 350 mg/kg oral gavage once a day, individual animals, grade
[8] = metformin 350 mg/kg oral gavage once a day, 12 weeks
[9] = metformin 350 mg/kg oral gavage once a day, MEAN ± SEM

CN(C)C(=N)N=C(N)N [metformin, Metformin]
Left eye [1, 5]: E (3×) and N (6×)
Right eye [1, 5]: N (8×) and E
Retinal degeneration, ganglion cell layer (left eye) [1, 6]: 2 (2×) and — (6×) and 1
Retinal degeneration, ganglion cell layer (right eye) [1, 6]: — (8×) and 1
Improvement of retinopathy (in words) ([1]; metformin 350 mg/kg, vs. negative control group): hardly improved the symptoms of retinopathy
kidney [2, 5]: E
Basophilic changes in renal tubules [2, 7]: — (8×) and 1
Dilation of the renal pelvis [2, 7]: —
Glomerular dilation [2, 7]: —
Glomerulosclerosis [2, 7]: 1 and — (8×)
Hypertrophy of renal tubular epithelial cells [2, 7]: —
Monocyte infiltration [2, 7]: —
Proliferation of glomerular mesangum or mesangial cells [2, 7]: 1 (3×) and 2 (6×)
Protein casts [2, 7]: —
Proliferation of glomerular mesangum or mesangial cells (in words) ([2]; metformin 350 mg/kg, no statistical difference vs. negative control group): showed the effect trend of alleviating the proliferation of glomerular mesangum or mesangial cells
Before administration CREA ([3]; metformin 350 mg/kg group, before administration (baseline)): 4.50 ± 1.38 µmol/L
Change rate of CREA [3, 8]: 0.83 ± 0.17
Renal index [3, 8]: 0.43 ± 0.03%
Blood glucose concentration, Administrating for 15 days [4, 9]: 6.95 ± 0.57 mmol/L
Blood glucose concentration, Administrating for 29 days [4, 9]: 8.30 ± 0.94 mmol/L
Blood glucose concentration, Administrating for 43 days [4, 9]: 8.93 ± 1.15 mmol/L
Blood glucose concentration, Administrating for 57 days [4, 9]: 8.92 ± 1.12 mmol/L
Blood glucose concentration, Administrating for 72 days [4, 9]: 8.80 ± 1.11 mmol/L
Blood glucose concentration, Administrating for one day [4, 9]: 13.78 ± 1.74 mmol/L
Hypoglycemic effect (in words) ([4]; metformin 350 mg/kg, vs. negative control group, from the 15th day, P<0.001): could significantly reduce the blood sugar of db/db mice

— patent US20210346414A1, “APPLICATION OF GLYCOSIDES IN THE PREPARATION OF DRUGS FOR PREVENTING AND TREATING DIABETES COMPLICATIONS” (CHENGDU SINNOCEAN BIOTECHNOLOGY CO., LTD., priority 2018, published 2021)
